Data reported in patent US11116757B2 (priority 2015, dated 2021).

Each compound was assayed against DCN1-UBC12 interaction (Homo sapiens (Human), UniProt Q96GG9) (assay: biochemical). Details: Table 4, commercial compounds; read-out: TR-FRET IC50.
Type: binding

Sequence of DCN1-UBC12 interaction (Q96GG9 60-248 limits assumed): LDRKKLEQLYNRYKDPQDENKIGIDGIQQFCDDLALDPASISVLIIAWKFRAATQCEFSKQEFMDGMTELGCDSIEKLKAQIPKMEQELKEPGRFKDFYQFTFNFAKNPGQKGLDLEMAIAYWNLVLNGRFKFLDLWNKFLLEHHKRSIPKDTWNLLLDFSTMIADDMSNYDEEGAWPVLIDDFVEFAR

Compound | IC50
COc1ccc(C(=O)N2CCC(C(=O)Nc3cccc(C)c3C)CC2)cc1 [C19] | > 67.6 µM
O=C(Nc1cccc(C(F)(F)F)c1)C1CCN(C(=O)c2cccc(F)c2)CC1 [C10] | > 42.9 µM
CC(=O)Nc1cccc(NC(=O)C2CCN(C(=O)c3ccco3)CC2)c1 [C39] | > 67.6 µM
O=C(Nc1ccc(C(F)(F)F)cc1)C1CCN(C(=O)c2ccccc2F)CC1 [C65] | > 68.1 µM
Cc1ccc(C(=O)N2CCC(C(=O)Nc3ccc(C)c(C)c3)CC2)cc1 [C25] | > 67.6 µM
O=C(Nc1cccc(C(F)(F)F)c1)C1CCN(C(=O)Cc2ccccc2)CC1 [C12] | > 65.9 µM
Cc1ccc(NC(=O)C2CCN(C(=O)c3ccc(Cl)cc3)CC2)cc1Cl [C6] | 38.1 µM
Cc1ccc(C(=O)N2CCC(C(=O)Nc3ccc(Cl)c(C(F)(F)F)c3)CC2)cc1 [C26] | > 67.6 µM
CCc1cccc(C)c1NC(=O)C1CCN(C(=O)c2ccccc2Cl)CC1 [C37] | > 67.6 µM
O=C(Nc1ccc(F)c(Cl)c1)C1CCN(C(=O)c2ccc(Cl)cc2)CC1 [C66] | > 75.6 µM

Same assay, conditions: Table 6, commercial compounds; read-out: TR-FRET IC50

Compound | IC50
CC(=O)N1CCN(C(=O)c2cnn(-c3nccc(-c4cccs4)n3)c2C2CC2)CC1 [E24] | 61.6 µM
CCN(CC)CCNC(=O)c1cnn(-c2ncc(C)c(-c3cccs3)n2)c1C1CC1 [E28] | > 37.4 µM
CCN(CC)CCNC(=O)c1cnn(-c2nccc(-c3cccs3)n2)c1C1CC1 [E36] | > 67.6 µM
CCN(CC)CCN(C)C(=O)c1cnn(-c2nccc(-c3cccs3)n2)c1C1CC1 [E34] | > 67.6 µM
COCCN(C(=O)c1cnn(-c2nccc(-c3cccs3)n2)c1C)C(C)C [E45] | > 67.6 µM
COCCN1CCN(C(=O)c2cnn(-c3nccc(-c4cccs4)n3)c2C2CC2)CC1 [E13] | 28.8 µM
CCOC(=O)N1CCN(C(=O)c2cnn(-c3ncc(C)c(-c4cccs4)n3)c2C)CC1 [E12] | 28.3 µM

Same assay, conditions: Table 7, commercial compounds; read-out: TR-FRET IC50

Compound | IC50
CCCOc1cc(C2c3c(C)nn(C)c3NC(=O)C2NC(=O)c2ccc(Cl)cc2)ccc1OC (centres unmarked) [F9] | > 67.6 µM
COc1cccc(C2c3c(C)nn(C)c3NC(=O)C2NC(=O)c2ccc(OC)c(OC)c2)c1 (centres unmarked) [F21] | > 67.6 µM
COc1ccc(C2c3c(C)nn(C)c3NC(=O)C2NC(=O)c2cccc(C)c2)cc1OC (centres unmarked) [F14] | > 67.6 µM
Cc1nn(C)c2c1C(c1ccc(C(C)(C)C)cc1)C(NC(=O)c1ccccc1)C(=O)N2 (centres unmarked) [F11] | > 67.6 µM
CCc1ccc(C2c3c(C)nn(C)c3NC(=O)C2NC(=O)c2ccc(OC)c(OC)c2)cc1 (centres unmarked) [F24] | > 67.6 µM
COc1ccc(C2c3c(C)nn(C)c3NC(=O)C2NC(=O)c2ccccc2)cc1OC (centres unmarked) [F29] | > 67.6 µM

Same assay, conditions: read-out: TR-FRET IC50

Compound | IC50
CCCC(C)N1CCC(N(Cc2ccccc2)C(=O)Nc2ccc(Oc3ccc(Cl)cc3)cc2)CC1 (centres unmarked) [A22] | 0.131 µM
CCCC(C)N1CCC(N(Cc2ccccc2)C(=O)Nc2cccc([N+](=O)[O-])c2C)CC1 (centres unmarked) [A161] | 7.94 µM
CCCC(C)N1CCC(N(Cc2ccccc2)C(=O)Nc2cccc(F)c2Cl)CC1 (centres unmarked) [A168] | 10.6 µM
O=C(Nc1cc(F)cc(C(F)(F)F)c1)N(Cc1ccccc1)C1CCN(Cc2cncnc2)CC1 [A210] | > 21.7 µM
1-Benzyl-1-(1-Isopentylpiperidin-4-yl)-3-(3-(Trifluoromethyl)Phenyl)Urea [A90] | 1.13 µM
O=C(Nc1cc(F)cc(C(F)(F)F)c1)N(Cc1ccccc1)C1CCN(C/C=C/c2ccccc2)CC1 [A143] | 4.27 µM
O=C(Nc1ccccc1Cl)NC1CCN(Cc2ccccc2)CC1 [B55] | > 67.6 µM
C#CCCCN1CCC(N(Cc2ccccc2NC(=O)C=C)C(=O)Nc2cccc(C(F)(F)F)c2)CC1 [A119] | 0.353 µM
O=C(CN1CCN(Cc2ccccc2)CC1)Nc1cc(C(F)(F)F)ccc1Cl [B113] | > 74 µM
CCCC(C)N1CCC(N(Cc2ccccc2)C(=O)Nc2ccccc2OC(F)(F)F)CC1 (centres unmarked) [A191] | 44.9 µM
O=C(Nc1cccc(C(F)(F)F)c1)NC1CCN(Cc2cccc(F)c2)CC1 [A183, 1-(1-(3-Fluorobenzyl)Piperidin-4-yl)-3-(3-(Trifluoromethyl)Phenyl)Urea] | 21.9 µM
O=C(c1ccc(F)cc1)N1CCC(c2nc3ccccc3s2)CC1 [D15] | > 46.2 µM
O=C(NC1CCN(Cc2ccc(F)cc2)CC1)C(F)(F)F [A305] | > 92.7 µM
CCCC(C)N1CCC(N(Cc2cccnc2)C(=O)Nc2ccc(F)c(C(F)(F)F)c2)CC1 (centres unmarked) [A55] | 0.303 µM
CCCN1CCC(N(CCOC)C(=O)Nc2cccc(C(F)(F)F)c2)CC1 [A248, 1-(2-Methoxyethyl)-1-(1-Propylpiperidin-4-yl)-3-(3-(Trifluoromethyl)Phenyl)Urea] | > 58.9 µM
CCCC(C)N1CCC(N(Cc2ccccc2)C(=O)Nc2cccc(-c3ccccc3)c2)CC1 (centres unmarked) [A129] | 2.67 µM
FC(F)(F)c1cccc(CNC2CCN(Cc3ccccc3)CC2)c1 [B32] | > 55.3 µM
COCCn1ccc(NC(=O)NC2CCN(Cc3ccccc3)CC2)n1 [B35] | > 55.9 µM
O=C(Nc1cc(F)cc(C(F)(F)F)c1)N(Cc1ccccc1)C1CCN(Cc2cncn2Cc2ccccc2)CC1 [A208] | > 21.1 µM
CCCC(C)N1CCC(N(Cc2ccccc2)C(=O)Nc2ccc(CN(C)C)cc2)CC1 (centres unmarked) [A236] | > 45.4 µM
CCCC(C)N1CCC(N(CCNC(=O)CCl)C(=O)Nc2cccc(C(F)(F)F)c2)CC1 (centres unmarked) [A251] | > 59.9 µM
CCCC(C)N1CCC(N(Cc2ccccc2)C(=O)Nc2cc(Cl)c(O)c(Cl)c2)CC1 (centres unmarked) [A260] | > 62.5 µM

Compound | IC50
1-(1-Acryloylpiperidin-4-yl)-1-Benzyl-3-(3-(Trifluoromethyl)Phenyl)Urea [A65] | 0.446 µM
CCCC(C)N1CCC(N(CCNC(=O)CCl)C(=O)Nc2cccc(C(F)(F)F)c2)CC1 (centres unmarked) [drawing 837] | > 60 µM
O=C(c1ccc(Cl)cc1)N1CCC(c2nc3ccccc3s2)CC1 [D20] | > 67.3 µM
CC(N1CCC(N(Cc2ccccc2)C(=O)Nc2cccc(C(F)(F)F)c2)CC1)C(F)(F)F (centres unmarked) [A223] | > 25.3 µM
O=C(Nc1cccc(I)c1)NC1CCN(Cc2ccccc2)CC1 [B98] | > 67.6 µM
CCCCN1CCC(N(Cc2ccc3c(c2)OCO3)C(=O)Nc2ccc(F)c(C(F)(F)F)c2)CC1 [A114] | 2.35 µM
CCCCN1CCC(N(Cc2ccccc2)C(=O)Nc2cccc(C)c2)CC1 [A95] | 1.32 µM
COc1ccccc1NC(=O)N(Cc1ccco1)C1CCN(C(C)=O)CC1 [B68] | > 67.6 µM
COc1ccc(CN(C(=O)Nc2cc(C)ccc2OC)C2CCN(C(C)=O)CC2)cc1 [B87] | > 67.6 µM
O=C(CN1CCN(c2cccc(Cl)c2)CC1)Nc1cccc(C(F)(F)F)c1 [B31] | > 54.3 µM
CCCC(C)N1CCC(N(Cc2ccccc2)C(=O)Nc2ccc(OC)cc2OC)CC1 (centres unmarked) [A197] | > 111 µM
CC(=O)N1CCC(N(Cc2ccc(C)o2)C(=O)Nc2cc(Cl)ccc2Cl)CC1 [B89] | > 67.6 µM
CN1CCC(NC(=O)Nc2cccc(C(F)(F)F)c2)CC1 [B100] | > 68.1 µM
CC(=O)N1CCC(N(Cc2ccco2)C(=O)Nc2cccc(C(F)(F)F)c2)CC1 [B10] | 20.2 µM
COc1ccccc1N1CCN(CC(=O)Nc2cccc(C(F)(F)F)c2)CC1 [B107] | > 72.3 µM
O=C(Nc1ccc(Br)cc1Cl)NC1CCN(Cc2ccccc2)CC1 [B50] | > 67.6 µM
CCCC(C)N1CCC(N(Cc2ccccc2)C(=O)Nc2ccc(OC)cc2F)CC1 (centres unmarked) [A290] | > 74 µM
CCOC(=O)c1ccccc1NC(=O)N(C(C)C)C1CCN(C(C)=O)CC1 [B66] | > 67.6 µM
CCCC(C)N1CCC(N(Cc2ccccc2)C(=O)Nc2ccc(S(=O)(=O)Nc3ccc(OC)nn3)cc2)CC1 (centres unmarked) [A296] | > 83.4 µM
CCCC(C)N1CCC(N(Cc2ccccc2)C(=O)Nc2cccc(C)c2C)CC1 (centres unmarked) [A271] | > 67.5 µM
CCOc1cc(C(=O)N2CCCC(c3nc4ccccc4s3)C2)cc(Br)c1OC (centres unmarked) [D28] | > 67.6 µM
CCCC(C)N1CCC(N(Cc2ccc3c(c2)OCO3)C(=O)Nc2ccc(F)c(C(F)(F)F)c2)CC1 (centres unmarked) [A61] | 0.371 µM

Compound | IC50
O=C(Nc1cccc(C(F)(F)F)c1)N1CCN(C(c2ccccc2)c2ccccc2)CC1 [B40] | > 62.8 µM
CCCC(C)N1CCC(N(Cc2ccccc2)C(=O)Nc2ccc(Cl)c(Cl)c2F)CC1 (centres unmarked) [A40] | 0.227 µM
O=C(Nc1cccc(CN2CCOCC2)c1)NC1CCN(Cc2ccccc2)CC1 [A276, 1-(1-Benzylpiperidin-4-yl)-3-(3-(Morpholinomethyl)Phenyl)Urea] | > 68.7 µM
CCCC1CCC(N(Cc2ccccc2)C(=O)c2cccc(C(F)(F)F)c2)CC1 (centres unmarked) [A193] | < 0.0029 µM
CCOc1ccccc1NC(=O)N(C(C)C)C1CCN(C(C)=O)CC1 [B67] | > 67.6 µM
CCCC(C)N1CCC(N(Cc2ccccc2)C(=O)Nc2ccc(OC(F)(F)F)cc2)CC1 (centres unmarked) [A32] | 0.191 µM
CCN1CCC(N(Cc2ccc3c(c2)OCO3)C(=O)Nc2cccc(Br)c2)CC1 [B4] | 4.06 µM
CCN1CCC(NC(=O)Nc2cc(Cl)ccc2Cl)CC1 [B54] | > 67.6 µM
CCCC(C)N1CCC(N(Cc2ccccc2)C(=O)Nc2cc(F)cc(S(F)(F)(F)(F)F)c2)CC1 (centres unmarked) [A48] | 0.26 µM
CCCCN1CCC(N(Cc2ccccc2)C(=O)Nc2cc(F)cc(C(F)(F)F)c2)CC1 [A45] | 0.256 µM
O=C(Nc1ccc(CN2CCCCC2)cc1)Nc1cc(C(F)(F)F)ccc1Cl [B29] | > 50.3 µM
CCCC(C)N1CCC(N(Cc2ccccc2)C(=O)Nc2ccc(F)c(S(F)(F)(F)(F)F)c2)CC1 (centres unmarked) [A54] | 0.295 µM
CCCC(C)N1CCC(N(Cc2ccccc2)C(=O)Nc2ccc3c(c2)OCO3)CC1 (centres unmarked) [A86] | 0.991 µM
O=C(NCCN1CCN(Cc2ccccc2C(F)(F)F)CC1)Nc1ccccc1 [B48] | > 67 µM
CCCC(C)N1CCC(N(Cc2ccccc2)C(=O)Nc2ccc(Cl)cc2F)CC1 (centres unmarked) [A91] | 1.19 µM
COc1ccc(CN(C(=O)Nc2ccc(Cl)cc2)C2CCN(C(C)=O)CC2)cc1 [B81] | > 67.6 µM
CCCCN1CCC(N(Cc2ccccc2)C(=O)Nc2ccc(F)c(Cl)c2)CC1 [A89] | 1.09 µM
1-Benzyl-1-(1-(Pentan-2-yl)Piperidin-4-yl)-3-(3-(Trifluoromethyl)Phenyl)Urea [A293] | > 78.2 µM
CCCC(C)N1CCC(N(Cc2ccccc2)C(=O)Nc2cccc(F)c2)CC1 (centres unmarked) [A72] | 0.621 µM
CCCC(C)N1CCC(N(Cc2ccccc2)C(=O)Nc2cccc(SC)c2)CC1 (centres unmarked) [A44] | 0.254 µM
CCCN1CCC(NC(=O)Nc2ccc(Cl)cc2Cl)CC1 [B14] | 43 µM
C=CS(=O)(=O)NCCCN(C(=O)Nc1cccc(C(F)(F)F)c1)C1CCN(C(C)CCC)CC1 (centres unmarked) [drawing 838] | > 24 µM
